Reference: US5559145A, “1,2,4-trioxane derivatives” (priority 1995, dated 1996)

How the values were obtained:
Onchocerca gutturosa [1] = assay: Activity against Onchocerca gutturosa assessed by motility (parasites, medium, serum, cells and test drugs); format: cell-based; design: reduction of motility: concentration or dose not given beside the values; conditions: with cells
Method: Testing in vitro against Onchocerca gutturosa is a valid model for activity against Onchocerca volvulus.
(§1) Testing of test drugs (Compounds 1, 2, 3, 4, 5, 7, 8, 9, 11, and 12 of Table 1 ) against the parasitic worms Onchocerca gutturosa was carried out in accordance with the method described in J Helminth (1987) 60, 271, firstly using parasites, medium, serum, cells and test drugs.

T. gondii [2] = assay: Activity against T. gondii within macrophages, assessed by light microscopy; format: cell-based, Toxoplasma gondii (in murine peritoneal macrophages); design: % infected cells / Mean T. gondii per infected vacuole / T. gondii per 100 cells: dose or concentration left out as unconfirmed; conditions: for Mean T. gondii per infected vacuole: macrophages (no drug: 4.3); for % infected cells: macrophages (no drug: 42); for T. gondii per 100 cells: macrophages (no drug: 191); for activity compared with pyrimethamine and pyrimethamine + sulfadiazine / inhibition of the intracellular growth of toxoplasma: in words, at respective IC90 values
Method: Unelicited murine peritoneal macrophages obtained by washing the peritoneal cavities of Swiss-Webster mice with 3 ml of Hanks' Balanced Salt Solution (HBSS) (4° C.) containing 5 U ml of heparin were purified by centrifugation in Ficoll-Paque (Pharmacia) 500×g for 15 min, pooled and suspended in medium 199 (M199) containing 10% heat-inactivated (56° C. for 60 min) fetal calf serum (FCS). An amount of […] was seeded into each well of 96-well dishes (Costar) and allowed to adhere during 2-3 h at 37° C. in an 5% CO2 -95% air atmosphere. The nonadherent cells were removed by washing twice with prewarmed HBSS and challenged with 3 ×10 tachyzoites of the RG strain of […] in M199-3% FCS for 1 h. After washing twice with HBSS, the infected monolayers received the test drugs (Compounds 1 to 10 of Table 1) at various concentrations in M199-10% FCS. The monolayers were then pulsed with […] of [3H]uracil (Amersham) during a period of 18 h. The acid-precipitable radioactivity on each well was counted by using a filtration procedure and the IC90 was calculated by probit analysis.
2×10^6 of the macrophage cells were seeded into each chamber of four-chamber glass slides (Lab-Tek). After removing nonadherent cells with HBSS, the monolayers were infected with 2×10^6 T. gondii for 1 h followed by addition of the drugs with the media over 18 h. Monolayers were fixed with 0.4% 9-aminoacridine (50% ethanol-water vol/vol), Giemsa-stained, and assessed by light microscopy. The results are shown in the following Table 6, including results of control compounds: […]

T. gondii [3] = assay: Activity against T. gondii within HeLa cells, assessed by light microscopy; format: cell-based, Toxoplasma gondii (in HeLa (ATCC CCL2) cells); conditions: for Mean T. gondii per infected vacuole: HeLa (no drug: 8.1); for % infected cells: HeLa (no drug: 49); for T. gondii per 100 cells: HeLa (no drug: 620); for block of parasite growth: in words, HeLa cells
Method: Confluent epithelium-like HeLa (ATCC CCL2) cell monolayers growing on 6-well plastic multidish (9.6 cm^2, Nunc, Roskilde, Denmark) were used. After washing with HBSS, the monolayers were infected with 3×10^6 ml^-1 T. gondii in M199-3% FCS (total amount per well, 3 ml) for 1 h, washed twice with HBSS, and the drugs were added with M199-10% FCS over 22 h. Monolayers were then fixed, Giemsa-stained and-assessed by light microscopy.

Onchocerca gutturosa [4] = assay: Activity against Onchocerca gutturosa assessed by motility (parasites, medium and drug); format: cell-based; conditions: for motility / effect on worm motility: without cells; for effect on worm motility: in words
Method: as §1
Secondly, test drugs (Compounds 2, 3, 4, 7,. 8, 9 and 12 of Table 1) were tested using parasites, medium and drug. […] Under these conditions, commercial anti-helminthic drugs and artemisinin also cut motility by some 30-40%.

[5] = test system: in vitro mitogenic assay; mixed lymphocyte reaction; assay: Immunomodulatory activity (in vitro mitogenic assay; mixed lymphocyte reaction); format: cell-based; conditions: in words
Method: Several of the compounds mentioned in Examples 1 to 17 were also tested for immunomodulatory activity (in vitro mitogenic assay; mixed lymphocyte reaction).

Onchocerca gutturosa [6] = assay: Activity against Onchocerca gutturosa, tetrazolium colorimetric test (parasites, medium, cells and test drug); format: cell-based; conditions: with cells; for inhibition at 50 µM: Onchocerca gutturosa, 5×10^-5 M, read-out: inhibition of formazan formation
Method: (§2) A suitable colorimetric assay uses formation of formazan, a blue dye, from tetrazolium cation generated by 3-[…] bromide (J Helminth (1987) 60, 271). Firstly, Compounds 1, 2, 4, 5, 7, 8, 9, 11 and 12, along with artemisinin and arteether were tested using parasites, medium, cells and test drug.

Onchocerca gutturosa [7] = assay: Activity against Onchocerca gutturosa, tetrazolium colorimetric test (parasites, medium and test drugs); format: cell-based; conditions: without cells
Method: as §2
Secondly, Compounds 2, 3, 4, 7, 8, 9, and 12, artemisinin and arteether were tested using parasites, medium and test drugs.

[8] = test system: chloroquine-resistant strains of P. falciparum; conditions: in words; background, Science 228, 1049 (1985); cited from earlier work
[9] = in words, 7 days, after an induction period
[10] = in words, two to three days exposure

C1=C(c2ccccc2)C[C@@]2(c3ccccc3)OOC3(CCCC3)O[C@@H]12 (relative stereo) [Compound 1 (Table 4)]
reduction of motility (Onchocerca gutturosa [1]; after 7 days): 100% | effect on worm motility (Onchocerca gutturosa [1]; [9]): completely stopped morality | Mean T. gondii per infected vacuole (T. gondii [2]; 6.8, 18 h): 1.6 | % infected cells (T. gondii [2]; 6.8, 18 h): 19% | T. gondii per 100 cells (T. gondii [2]; 6.8, 18 h): 38 | activity compared with pyrimethamine and pyrimethamine + sulfadiazine (T. gondii [2]): comparable to that of pyrimethamine, and pyrimethamine in combination with sulfadiazine | inhibition of the intracellular growth of toxoplasma (T. gondii [2]): confirmed the inhibition of the intracellular growth of toxoplasma | Mean T. gondii per infected vacuole (T. gondii [3]; 6.8 mg ml^-1, 22 h): 1.8 | % infected cells (T. gondii [3]; 6.8 mg ml^-1, 22 h): 23% | T. gondii per 100 cells (T. gondii [3]; 6.8 mg ml^-1, 22 h): 46 | block of parasite growth (T. gondii [3]): able to block parasite growth

C1=C(c2ccccc2)C[C@@]2(c3ccccc3)OOC3(CCSCC3)O[C@@H]12 (relative stereo) [Compound 2 (Table 4)]
reduction of motility (Onchocerca gutturosa [1]; after 7 days): 100% | effect on worm motility (Onchocerca gutturosa [1]; [10]): markedly inhibitory | Mean T. gondii per infected vacuole (T. gondii [2]; 5.3, 18 h): 1.2 | % infected cells (T. gondii [2]; 5.3, 18 h): 14% | T. gondii per 100 cells (T. gondii [2]; 5.3, 18 h): 35 | activity compared with pyrimethamine and pyrimethamine + sulfadiazine (T. gondii [2]): comparable to that of pyrimethamine, and pyrimethamine in combination with sulfadiazine | inhibition of the intracellular growth of toxoplasma (T. gondii [2]): confirmed the inhibition of the intracellular growth of toxoplasma | Mean T. gondii per infected vacuole (T. gondii [3]; 5.3 mg ml^-1, 22 h): 1.3 | % infected cells (T. gondii [3]; 5.3 mg ml^-1, 22 h): 23% | T. gondii per 100 cells (T. gondii [3]; 5.3 mg ml^-1, 22 h): 38 | block of parasite growth (T. gondii [3]): able to block parasite growth | motility (Onchocerca gutturosa [4]; after 2-3 days): less than 1

C1=C(c2ccccc2)C[C@@]2(c3ccccc3)OOC3(CCOCC3)O[C@@H]12 (relative stereo) [Compound 3 (Table 4)]
effectiveness in the motility test (Onchocerca gutturosa [1]; in words, overall): not so effective | effect on worm motility (Onchocerca gutturosa [4]; after 2-3 days): performed poorly

O=C1CCC2(CC1)OO[C@]1(c3ccccc3)CC(c3ccccc3)=C[C@@H]1O2 (relative stereo) [Compound 4 (Table 4)]
reduction of motility (Onchocerca gutturosa [1]; after 7 days): 100% | effect on worm motility (Onchocerca gutturosa [1]; in words, one day exposure): significantly effective | effect on worm motility (Onchocerca gutturosa [4]; after one day): immediate response

CC1(C)OO[C@]2(c3ccccc3)CC(c3ccccc3)=C[C@@H]2O1 (relative stereo) [Compound 5 (Table 4)]
reduction of motility (Onchocerca gutturosa [1]; after 7 days): 100% | effect on worm motility (Onchocerca gutturosa [1]; in words, one day exposure): significantly effective

O=C1C(c2ccccc2)=C[C@@]2(c3ccccc3)OOC3(CCCCC3)O[C@@H]12 (relative stereo) [Compound 6 (Table 4)]
Mean T. gondii per infected vacuole (T. gondii [2]; 54, 18 h): 1.9 | % infected cells (T. gondii [2]; 54, 18 h): 20% | T. gondii per 100 cells (T. gondii [2]; 54, 18 h): 43 | activity compared with pyrimethamine and pyrimethamine + sulfadiazine (T. gondii [2]): comparable to that of pyrimethamine, and pyrimethamine in combination with sulfadiazine | inhibition of the intracellular growth of toxoplasma (T. gondii [2]): confirmed the inhibition of the intracellular growth of toxoplasma

CC1(C)OO[C@@]2(c3ccc(Cl)cc3)CC(c3ccc(Cl)cc3)=C[C@H]2O1 (relative stereo) [Compound 6]
immunomodulatory activity [5]: most important activity

O[C@@H]1C(c2ccccc2)=C[C@@]2(c3ccccc3)OOC3(CCOCC3)O[C@@H]12 (relative stereo) [Compound 7 (Table 4)]
reduction of motility (Onchocerca gutturosa [1]; after 7 days): 100% | effect on worm motility (Onchocerca gutturosa [1]; [9]): completely stopped morality | motility (Onchocerca gutturosa [4]; after 2-3 days): less than 1

O[C@@H]1C(c2ccccc2)=C[C@@]2(c3ccccc3)OOC3(CCCC3)O[C@@H]12 (relative stereo) [Compound 8 (Table 4)]
reduction of motility (Onchocerca gutturosa [1]; after 7 days): 100% | effect on worm motility (Onchocerca gutturosa [1]; [10]): markedly inhibitory | effect on worm motility (Onchocerca gutturosa [4]; after one day): immediate response

O[C@@H]1C(c2ccccc2)=C[C@@]2(c3ccccc3)OOC3(CCCCC3)O[C@@H]12 (relative stereo) [Compound 9 (Table 4)]
reduction of motility (Onchocerca gutturosa [1]; after 7 days): 100% | effect on worm motility (Onchocerca gutturosa [1]; in words, one day exposure): immediately immobilized worms in less than a day | effect on worm motility (Onchocerca gutturosa [1]; [10]): markedly inhibitory | inhibition at 50 µM (Onchocerca gutturosa [6]): > 90% | effect on worm motility (Onchocerca gutturosa [4]; after one day): immediate response

Cc1ccc(C2=C[C@@]3(c4ccc(C)cc4)OOC4(CCCCC4)O[C@H]3C2=O)cc1 (relative stereo) [Compound 11 (Table 4)]
reduction of motility (Onchocerca gutturosa [1]; after 7 days): 100% | effect on worm motility (Onchocerca gutturosa [1]; in words, one day exposure): significantly effective | inhibition at 50 µM (Onchocerca gutturosa [6]): > 90%

CC1(C)OO[C@]2(c3ccccc3)CCC(c3ccccc3)=C[C@@H]2O1 (relative stereo) [Compound 12 (Table 4)]
reduction of motility (Onchocerca gutturosa [1]; after 7 days): 100% | effect on worm motility (Onchocerca gutturosa [1]; [10]): markedly inhibitory | inhibition at 50 µM (Onchocerca gutturosa [6]): > 90% | motility (Onchocerca gutturosa [4]; after 2-3 days): less than 1

C1=C(c2ccccc2)C[C@]2(c3ccccc3)OOC3(CCOCC3)O[C@H]12 (relative stereo) [Compound 12]
immunomodulatory activity [5]: most important activity

CCc1nc(N)nc(N)c1-c1ccc(Cl)cc1 [P, pyrimethamine, reference compound]
Mean T. gondii per infected vacuole (T. gondii [2]; 1, 18 h): 1.2 | % infected cells (T. gondii [2]; 1, 18 h): 14% | T. gondii per 100 cells (T. gondii [2]; 1, 18 h): 33

CCO[C@H]1O[C@@H]2O[C@@]3(C)CC[C@H]4[C@H](C)CC[C@@H]([C@H]1C)[C@@]24OO3 [arteether, reference compound]
reduction of motility (Onchocerca gutturosa [1]; after a day, 1440 min): 30% | inhibition of formazan formation (Onchocerca gutturosa [6]): about 40% | inhibition of formazan formation (Onchocerca gutturosa [7]; in words): ineffective | motility (Onchocerca gutturosa [4]; after 4 days): 4 | motility (Onchocerca gutturosa [4]; after 7 days): 2

C[C@@H]1CC[C@H]2[C@@H](C)C(=O)O[C@@H]3O[C@@]4(C)CC[C@@H]1[C@]32OO4 [artemisinin, reference compound]
effect on worm motility (Onchocerca gutturosa [1]; in words, one day exposure): ineffective | inhibition of formazan formation (Onchocerca gutturosa [6]; in words): ineffective | inhibition of formazan formation (Onchocerca gutturosa [7]): about 25% | activity of Qinghaosu against chloroquine-resistant strains [8]: remarkably active | reduction of motility (Onchocerca gutturosa [4]; without cells ("under these conditions")): 30-40%
